Data taken from ChEMBL document CHEMBL1201862, “PubChem BioAssay data set” (2004).
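Cultured in 96-well plates, cells were exposed to test compound for 48 hours across five concentrations. GI50 = concentration required for 50% inhibition of growth.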 Active and inactive are the calls of the source. Cut-off read from the data, not from the text of the source: active = GI50 up to about 1.1 µM and inactive = higher.

Legend:
Experiment in all cases: growth of human tumour cells (NCI), 48 h
HCT-116 = system: HCT-116
NCI-H460 = system: NCI-H460
U-251 = system: U-251
SNB-75 = system: SNB-75
UACC-62 = system: UACC-62
SK-MEL-2 = system: SK-MEL-2
NCI-H23 = system: NCI-H23
UO-31 = system: UO-31
SW-620 = system: SW-620
HT-29 = system: HT-29
LOX IMVI = system: LOX IMVI
EKVX = system: EKVX
M14 = system: M14
A549 = system: A549
SF-268 = system: SF-268
NCI-H226 = system: NCI-H226
HL-60 = system: HL-60
MDA-MB-231 = system: MDA-MB-231
PC-3 = system: PC-3
BT-549 = system: BT-549

Measured: GI50

Cc1ccccc1-n1c(C)nc(-c2ccccc2)cc1=O
inactive: HCT-116 > 100 µM | NCI-H460 > 100 µM | U-251 > 100 µM | SNB-75 37.7 µM | UACC-62 > 100 µM | SK-MEL-2 > 100 µM | NCI-H23 > 100 µM | UO-31 > 100 µM | SW-620 > 100 µM | HT-29 > 100 µM | LOX IMVI > 100 µM | EKVX > 100 µM | M14 > 100 µM | A549 > 100 µM | SF-268 > 100 µM | NCI-H226 > 100 µM | HL-60 > 100 µM

CCOC(=O)/C=C/CCC(C)(C)COC(C)=O
inactive: HCT-116 > 10 µM | NCI-H460 > 10 µM | U-251 > 10 µM | SNB-75 > 10 µM | MDA-MB-231 > 10 µM | UACC-62 > 10 µM | SK-MEL-2 > 10 µM | NCI-H23 > 10 µM | UO-31 > 10 µM | SW-620 > 10 µM | HT-29 > 10 µM | LOX IMVI > 10 µM | EKVX > 10 µM | M14 > 10 µM | A549 > 10 µM | PC-3 > 10 µM | SF-268 > 10 µM | NCI-H226 > 10 µM | HL-60 > 10 µM

Cc1ccc(CC[PH](=O)CCc2ccc(C)nc2)cn1
inactive: HCT-116 > 100 µM | NCI-H460 > 100 µM | U-251 > 100 µM | MDA-MB-231 > 100 µM | UACC-62 > 100 µM | NCI-H23 > 100 µM | SW-620 > 100 µM | HT-29 > 100 µM | LOX IMVI > 100 µM | EKVX > 100 µM | M14 > 100 µM | PC-3 > 100 µM | SF-268 > 100 µM | NCI-H226 > 100 µM | HL-60 > 100 µM

Cn1c(=O)c2ccccc2[n+]2c(-c3cccc([N+](=O)[O-])c3)csc12
inactive: HCT-116 67.5 µM | NCI-H460 36.7 µM | U-251 32.6 µM | SNB-75 12.9 µM | MDA-MB-231 30.8 µM | UACC-62 70.3 µM | SK-MEL-2 36.4 µM | NCI-H23 > 100 µM | UO-31 > 100 µM | SW-620 > 100 µM | HT-29 41.3 µM | LOX IMVI > 100 µM | EKVX 25.2 µM | M14 > 100 µM | A549 91.4 µM | PC-3 50.5 µM | SF-268 26.5 µM | NCI-H226 > 100 µM | HL-60 23 µM

COc1cc2c3c(c1Oc1nnnn1-c1ccccc1)-c1c(ccc4c1OCO4)C[C@H]3N(C)CC2
inactive: HCT-116 31.7 µM | NCI-H460 36.9 µM | U-251 69 µM | SNB-75 22.6 µM | MDA-MB-231 41.8 µM | UACC-62 14.3 µM | SK-MEL-2 71.9 µM | NCI-H23 36.6 µM | UO-31 78.9 µM | SW-620 80.7 µM | HT-29 18.5 µM | LOX IMVI 29 µM | EKVX 32.4 µM | M14 18.7 µM | A549 45.6 µM | PC-3 38.6 µM | SF-268 48.9 µM | NCI-H226 > 100 µM | HL-60 15.1 µM

CC1(C)CC(=O)C(CC2C(=O)CCCC2=O)C(=O)C1
inactive: HCT-116 > 100 µM | NCI-H460 > 100 µM | U-251 > 100 µM | SNB-75 > 100 µM | UACC-62 > 100 µM | SK-MEL-2 > 100 µM | NCI-H23 > 100 µM | UO-31 > 100 µM | SW-620 > 100 µM | HT-29 > 100 µM | LOX IMVI > 100 µM | EKVX > 100 µM | M14 > 100 µM | A549 > 100 µM | SF-268 > 100 µM | NCI-H226 > 100 µM | HL-60 > 100 µM

Cc1cnc[nH]c1=O
inactive: HCT-116 > 100 µM | NCI-H460 > 100 µM | U-251 > 100 µM | SNB-75 > 100 µM | UACC-62 > 100 µM | SK-MEL-2 > 100 µM | NCI-H23 > 100 µM | UO-31 > 100 µM | SW-620 > 100 µM | HT-29 > 100 µM | LOX IMVI > 100 µM | EKVX > 100 µM | M14 > 100 µM | A549 > 100 µM | SF-268 > 100 µM | NCI-H226 > 100 µM | HL-60 > 100 µM

O=S(=O)(NCn1ccc2ccccc21)c1ccccc1
inactive: HCT-116 49.3 µM | NCI-H460 > 100 µM | U-251 > 100 µM | SNB-75 > 100 µM | UACC-62 > 73.8 µM | SK-MEL-2 > 100 µM | NCI-H23 > 100 µM | UO-31 > 100 µM | SW-620 38.4 µM | HT-29 37 µM | LOX IMVI 66.5 µM | EKVX > 100 µM | M14 > 100 µM | A549 > 100 µM | SF-268 > 57.8 µM | NCI-H226 > 100 µM | HL-60 22.4 µM

COC(=O)C(=O)C(C(=O)C(=O)Nc1ccccc1C(N)=O)c1nc2ccc([N+](=O)[O-])cc2nc1O (stereo unspecified)
inactive: HCT-116 > 100 µM | NCI-H460 > 100 µM | U-251 > 100 µM | SNB-75 > 100 µM | UACC-62 > 100 µM | SK-MEL-2 > 100 µM | NCI-H23 > 100 µM | UO-31 > 100 µM | SW-620 > 100 µM | HT-29 > 100 µM | LOX IMVI > 100 µM | EKVX > 100 µM | M14 > 100 µM | A549 > 100 µM | SF-268 > 100 µM | NCI-H226 > 100 µM | HL-60 > 100 µM

O=S(=O)(/N=S(/Nc1ccccc1)C(F)(F)Cl)c1ccccc1 (stereo unspecified)
inactive: HCT-116 > 100 µM | NCI-H460 > 100 µM | U-251 > 100 µM | SNB-75 > 100 µM | MDA-MB-231 > 100 µM | UACC-62 > 100 µM | SK-MEL-2 > 100 µM | NCI-H23 > 100 µM | UO-31 > 100 µM | SW-620 > 100 µM | HT-29 > 100 µM | LOX IMVI > 100 µM | EKVX > 100 µM | M14 > 100 µM | A549 > 100 µM | PC-3 > 100 µM | SF-268 > 100 µM | NCI-H226 > 100 µM | HL-60 > 100 µM

C=CCn1cc(C(=O)NC(=O)NCCCCCOC(=O)CCCCCCCCCCC(=O)OCCCCCNC(=O)NC(=O)c2cn(CC=C)c(=O)n(C)c2=O)c(=O)n(C)c1=O
inactive: HCT-116 > 100 µM | NCI-H460 > 100 µM | U-251 > 100 µM | SNB-75 > 100 µM | UACC-62 > 100 µM | SK-MEL-2 > 100 µM | NCI-H23 > 100 µM | UO-31 > 100 µM | SW-620 > 100 µM | HT-29 > 100 µM | LOX IMVI > 100 µM | EKVX > 100 µM | M14 > 100 µM | A549 > 100 µM | SF-268 > 100 µM | NCI-H226 > 100 µM | HL-60 > 100 µM

O=C(CC1SC(Nc2ccccc2Cl)=NC1=O)Nc1ccc(Cl)cc1Cl (stereo unspecified)
inactive: HCT-116 > 100 µM | NCI-H460 > 100 µM | U-251 > 100 µM | SNB-75 > 100 µM | UACC-62 > 100 µM | SK-MEL-2 81.1 µM | NCI-H23 > 100 µM | UO-31 > 100 µM | SW-620 > 100 µM | HT-29 > 100 µM | LOX IMVI > 100 µM | EKVX > 100 µM | M14 > 100 µM | A549 > 100 µM | SF-268 > 100 µM | NCI-H226 > 100 µM | HL-60 > 100 µM

CCOC(=O)C1(N)CC1
inactive: HCT-116 > 100 µM | NCI-H460 > 100 µM | U-251 > 100 µM | SNB-75 > 100 µM | MDA-MB-231 > 100 µM | NCI-H23 > 100 µM | UO-31 > 100 µM | SW-620 > 100 µM | HT-29 > 100 µM | LOX IMVI > 100 µM | EKVX > 100 µM | M14 > 100 µM | A549 > 100 µM | PC-3 71 µM | SF-268 > 100 µM | NCI-H226 > 100 µM | HL-60 > 100 µM

COc1ccc(/C=C2/NC(=S)N=C2Cl)cc1
inactive: HCT-116 > 100 µM | U-251 > 100 µM | SNB-75 > 100 µM | MDA-MB-231 > 100 µM | SK-MEL-2 > 100 µM | NCI-H23 > 100 µM | UO-31 > 100 µM | SW-620 > 100 µM | HT-29 > 100 µM | LOX IMVI > 100 µM | EKVX > 100 µM | M14 > 100 µM | A549 85.1 µM | PC-3 > 100 µM | SF-268 > 100 µM | NCI-H226 > 100 µM | HL-60 > 100 µM

CN1CNc2nc(N)n(C)c(=O)c2C1
inactive: NCI-H460 > 10 µM | U-251 > 10 µM | SNB-75 7.46 µM | UACC-62 > 10 µM | SK-MEL-2 > 10 µM | NCI-H23 > 10 µM | UO-31 > 10 µM | HT-29 > 10 µM | BT-549 > 10 µM | EKVX > 10 µM | M14 > 10 µM | A549 > 10 µM | SF-268 > 10 µM | NCI-H226 > 10 µM | HL-60 > 10 µM

COC(=O)CCC(=O)CC1CC(=O)C2CCCN12 (stereo unspecified)
inactive: HCT-116 > 100 µM | NCI-H460 > 100 µM | U-251 > 100 µM | SNB-75 > 100 µM | UACC-62 > 100 µM | SK-MEL-2 > 100 µM | NCI-H23 > 100 µM | UO-31 > 100 µM | SW-620 > 100 µM | HT-29 > 100 µM | LOX IMVI > 100 µM | EKVX > 100 µM | M14 > 100 µM | A549 > 100 µM | SF-268 > 100 µM | NCI-H226 > 100 µM | HL-60 > 100 µM
